The subject of experiment [1] is B16F0 mouse melanoma cells. The experiment in a line: MTT cell proliferation assay in B16F0 cells. As to conditions: B16F0, 72 h, 3 days, read-out: 50% of inhibitory concentration, IC50 in B16 F0 cells. In kind it is cell-based. The procedure: MTT [3-(4,5-dimethylthiazol-2-yl)-2,5-diphenyltetrazolium bromide] incorporation based cell proliferation assay was performed using standard procedure with some modifications (38). The cytotoxic efficacy of the test compounds were evaluated in human malignant melanoma A2058 cells by MTT cell proliferation assay kit (Roche Applied Sciences, Germany). The assay was carried out according to the instruction provided by the vendor. Briefly, equal numbers of cells was plated in 96-well flat-bottomed plates in 100 μl of medium and were exposed to either DTIC or its derivative compounds at various concentrations up to 150 μg/ml for a period of three days. Vehicle control culture wells received only a maximum of 0.5% DMSO. […] After complete solubilization of the formazan crystals the absorbance was read at 540 nm in a microplate reader (BioRad, USA). […]
The comparative anti-tumor growth potential of DTIC and Compound 6 was further tested in B16F0 mouse melanoma cells and A375 human melanoma cells by using MTT based cell proliferation assay following the methodology described earlier (Example 19). […] After adding the MTT reagent, the cells were solubilized and the intracellular formazan formation was calorimetrically read at 540 nm in a microplate reader (BioRad, USA). […]
In general terms: Formazan colour is commonly taken as a measure of viable cells.

A further experiment deals with B16F0 cells. The experiment in a line: B16 F0 mouse melanoma cell colony formation assay. In kind it is cell-based. As to conditions: B16F0, 192 h, 8 days, read-out: B16 colony growth inhibition; for inhibition at 100 µg/mL: 100 μg/ml. The protocol:
Clone formation efficiency of the Compound 6 and DTIC was tested by following the procedure described earlier with some modifications (41). Briefly, B16F0 cells were harvested and seeded into 6-well plates (100 cells/ml). The cells were allowed to grow for 2 days and thereafter, the cells were incubated with DMEM containing either 0.1% DMSO or 100 μg/ml DTIC or 50 μg/ml and 100 μg/ml of Compound 6 for further 8 days. Fresh medium containing test agents was replaced at every 24 h. Finally, the wells were washed three times with PBS and fixed in methanol for 15 min. The cells were stained with Giemsa stain and observed under microscope. The image of the stained wells were captured digitally (Kodak Image Station 4000MM, Carestream Health Inc., New Haven, Conn.) and number of colonies were counted and analyzed by using NIH Image J software.

The subject of another experiment is B16 F0 melanoma. The experiment in a line: B16 F0 melanoma xenograft model of C57B6J mice. Format: in vivo. Particulars: for dose response of tumor growth inhibition: two dose levels (50 and 100 mg/kg), intra-peritoneal. The procedure: […] mice of 6 weeks age (body weight 18-22 g) were purchased from National Institute of Nutrition (NIN), Hyderabad (India). Animals study protocols were approved by Institutional Ethics Committee (IAEC). All the studies were performed in compliance with the Committee for the Purpose of Control and Supervision of Experiments on Animals (CPCSEA) guidelines and OECD guidelines. Animals were allowed free access to standard feed and provided charcoal filtered and UV exposed water ad libitum. The animals were maintained at a controlled temperature (24-26° C.), humidity (45-70%), and 12 h/12 h of light/dark cycle. To induce the melanoma tumor formation, sub-confluent B16F0 cells were harvested by brief trypsinization and 1×10^6 cells were injected subcutaneously in 0.2 ml phosphate-buffered saline. Drug treatment was started after development of palpable tumors (3-5 days after implantation of the cells). […] After fourteen days of treatment, the animals were sacrificed by CO2 inhalation and tumors were excised and weighed.

In experiment [2] the test system is DU145 human prostate tumor cells. The experiment in a line: MTT cell proliferation assay in DU145 cells. Particulars: DU-145, read-out: 50% of inhibitory concentration, IC50 DU145. Format: cell-based. The procedure:
(§1) MTT [3-(4,5-dimethylthiazol-2-yl)-2,5-diphenyltetrazolium bromide] incorporation based cell proliferation assay was performed using standard procedure with some modifications (38). The cytotoxic efficacy of the test compounds were evaluated in human malignant melanoma A2058 cells by MTT cell proliferation assay kit (Roche Applied Sciences, Germany). The assay was carried out according to the instruction provided by the vendor. Briefly, equal numbers of cells was plated in 96-well flat-bottomed plates in 100 μl of medium and were exposed to either DTIC or its derivative compounds at various concentrations up to 150 μg/ml for a period of three days. Vehicle control culture wells received only a maximum of 0.5% DMSO. Thereafter, 0.5 mg/ml of MTT reagent was added to each well and the microplate was incubated further for 4 h at 37° C. in presence of 5% CO2. Finally, the cells were solubilized by adding solubilizing solution and allowed to incubate at 37° C. overnight. After complete solubilization of the formazan crystals the absorbance was read at 540 nm in a microplate reader (BioRad, USA). The results (mean OD±SD) obtained from quadruplicate wells were used in calculation to determine the inhibition of cell proliferation (50% inhibitory concentration, IC50) of the test compounds.
(§2) Anti-tumor growth potential of Compound 1 and Compound 6 were evaluated in MCF-7 human breast tumor cells, MIA-PaCa2 human pancreas tumor cells and DU145 human prostate tumor cells by using MTT based cell proliferation studies as described earlier (example 19). The results (mean OD±SD) obtained from quadruplicate wells were used in calculation to determine the inhibition of cell proliferation (50% of inhibitory concentration, IC50) of the test compounds (Table 4).

For experiment [3], the system named is A375 human melanoma cells. The experiment in a line: LDH leakage cytotoxicity assay in A375 cells. Format: cell-based. As to conditions: treatment concentration 100 μg/ml. The procedure:
From the data obtained from the MTT assay (Table J), compound 1, compound 6 and compound 13 have been selected and their cytotoxicity potential has been further validated in LDH leakage assay. […] Cytotoxicity potential of DTIC and its derivative compounds were evaluated by measuring the leaked lactate dehydrogenase (LDH) into the culture supernatant (LDH Cytotoxicity Detection Roche Applied Sciences, Germany). The leaked LDH is directly proportional to the cell damage done by the cytotoxic compounds. In brief, cells were treated with test compounds at various concentrations and incubated for 48 h. Vehicle control culture wells received only a maximum of 0.5% DMSO. The cell free culture supernatants were mixed with catalyst and dye solution and allowed to incubate for 15 min at room temperature. Finally, the reaction was stopped and the optical density was measured at 492 nm in a microplate reader (BioRad, USA). […]
Comparative cytotoxicity potential of DTIC and Compound 6 on B16F0 mouse melanoma cells and A375 human melanoma cells were further evaluated by measuring the leaked lactate dehydrogenase (LDH) into the culture supernatant (LDH Cytotoxicity Detection Kit^Plus, Roche Applied Sciences, Germany), following the methodology described earlier (Example 20). […]

In experiment [4] the test system is A2058, human malignant melanoma cells. The experiment in a line: MTT cell proliferation assay in A2058 cells. As to conditions: A2058, 72 h, three days exposure. In kind it is cell-based. The procedure:
as §1

The test system of experiment [5] is MCF-7 human breast tumor cells. The experiment in a line: MTT cell proliferation assay in MCF-7 cells. In kind it is cell-based. Particulars: MCF7, read-out: 50% of inhibitory concentration, IC50 MCF-7. The procedure: as §1, §2

Converted amounts (≈) assume the structure as drawn.

The record followed here is US8258119B2, “Anti-cancer drugs and uses relating thereto for metastatic malignant melanoma and other cancers” (Kasina Laila Innova Pharmaceuticals, priority 2008, dated 2012).

The term inhibition denotes the change of the read-out against control, counted positive when it falls.

For the molecule `CN(C)/N=N/c1ccsc1C(=O)O` [Compound 6, 3-[(dimethylamino)diazenyl]thiophene-2-carboxylic acid], the IC50 is 57.6 µg/mL (≈ 289 µM) in experiment [1], 62.6 µg/mL (≈ 314 µM) in experiment [2], 53.6 µg/mL (≈ 269 µM) in experiment [4] and 91.7 µg/mL (≈ 460 µM) in experiment [5]. Besides, in the experiment on B16F0 cells (50 μg/ml), the inhibition at 50 µg/mL was 55.2%. Also, the inhibition at 100 µg/mL in the experiment on B16F0 cells came out at 68.7%. In addition, in the experiment with B16 F0 melanoma (daily intra-peritoneal, fourteen days, tumor weight), the anti-tumor activity result is reported as “better anti-tumor activity than DTIC”. Further, the “dose response of tumor growth inhibition” value in the experiment with B16 F0 melanoma is listed as “dose response inhibition at the two dose levels tested”. Moreover, in experiment [3], the “% increase in LDH secretion with respect to vehicle treated control in A375 cells” value stood at 331%.

For `CN(C)/N=N/c1[nH]cnc1C(N)=O` [DTIC, 5-(3,3-dimethyl-1-trizeno)-imidazole-4-carboxamide, reference compound], the IC50 in experiment [1] was determined as 360 µg/mL (≈ 1980 µM); in experiment [2], 87.2 µg/mL (≈ 479 µM); in experiment [4] it was 68.1 µg/mL (≈ 374 µM); in experiment [5], 135 µg/mL (≈ 742 µM). For the same molecule, the inhibition at 100 µg/mL in the experiment with B16F0 cells is 37.6%. Further, the “dose response of tumor growth inhibition” value in the experiment on B16 F0 melanoma is “failed to show statistically significant dose response”. For the same molecule, the “% increase in LDH secretion with respect to vehicle treated control in A375 cells” value in experiment [3] stood at 246%.
